Where a name gives a salt, the structure may show the parent alone.
What follows are molecules tested against T1, BRD4 proteins (Homo sapiens, UniProt O60885) (assay: Degradation of BRD4 protein in MM.1S cell lines (Western blot densitometry)). Conditions: MM.1S cells, 10 μM, 24 hours.
T1 construct: endogenous in cells; host or cells: MM.1S
Assay type: cell-based
Procedure, shortened: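 MM.1S cells in RPMI-1640 with 10% FBS were treated with each degrader at 10 μM for 24 h. RIPA lysates were analysed by SDS-PAGE/Western blot with β-actin as reference, and BRD4 band densitometry was scored as reduction <40% (+), 40-<70% (++) or ≥70% (+++).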

| Structure (SMILES) | BRD4 degrading capacity (%) |
| --- | --- |
| COC(=O)c1cc(N2CCN(CCCNC(=O)C[C@@H]3N=C(c4ccc(Cl)cc4)c4c(sc(C)c4C)-n4c(C)nnc43)CC2)ccc1C#CCN.Cl [5-165′, methyl (S)-2-(3-aminoprop-1-yn-1-yl)-5-(4-(3-(2-(4-(4-chlorophenyl)-2,3,9-trimethyl-6H-thieno[3,2-f][1,2,4]triazolo[4,3-a][1,4]diazepin-6-yl)acetamido)propyl)piperazin-1-yl)benzoate hydrochloride] | +++ (the degrading capacity was reduced by 70% or more) |
| COC(=O)c1ccc(N2CC3(CCN(C(=O)C[C@@H]4N=C(c5ccc(Cl)cc5)c5c(sc(C)c5C)-n5c(C)nnc54)CC3)C2)cc1C#CCN.Cl [5-168′, methyl (S)-2-(3-aminoprop-1-yn-1-yl)-4-(7-(2-(4-(4-chlorophenyl)-2,3,9-trimethyl-6H-thieno[3,2-f][1,2,4]triazolo[4,3-a][1,4]diazepin-6-yl)acetyl)-2,7-diazaspiro[3.5]nonan-2-yl)benzoate hydrochloride] | +++ (the degrading capacity was reduced by 70% or more) |

The molecules below were run against T2, Aurora A proteins (Homo sapiens, UniProt O14965) (assay: Degradation of Aurora A protein in MM.1S cell lines (Western blot densitometry)). Conditions: MM1.S, 24 h, read-out: Aurora A degrading capacity (%).
T2 construct: endogenous in cells; host or cells: MM.1S
T2 sequence (O14965 1-403): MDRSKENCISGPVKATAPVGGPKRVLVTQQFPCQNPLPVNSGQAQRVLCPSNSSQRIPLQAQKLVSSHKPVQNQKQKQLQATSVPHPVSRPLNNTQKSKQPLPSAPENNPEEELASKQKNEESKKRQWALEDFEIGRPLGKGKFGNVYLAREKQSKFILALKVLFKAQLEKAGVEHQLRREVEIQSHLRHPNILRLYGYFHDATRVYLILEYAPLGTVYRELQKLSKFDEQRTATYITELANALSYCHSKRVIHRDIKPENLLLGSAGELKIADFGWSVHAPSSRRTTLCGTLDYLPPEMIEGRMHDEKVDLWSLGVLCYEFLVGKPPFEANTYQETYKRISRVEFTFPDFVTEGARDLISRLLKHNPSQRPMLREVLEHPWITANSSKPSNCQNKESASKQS
Assay type: cell-based
Experimental: Specifically, the MM.1S cells were cultured in RPMI-1640 medium containing 10% fetal bovine serum (FBS), 1% penicillin, and streptomycin (100 U/mL), transferred to a 6-well plate, and after 24 hours, the Aurora A degraders were diluted in the RPMI culture medium and cells were treated with 5 μM concentration thereof. After treatment, the cells were incubated in a CO2 incubator for 24 hours. […] After cell culture was completed according to the experimental conditions, the cells were collected and centrifuged at 1,800 rpm for 3 minutes. The cells in the precipitate were lysed with RIPA (25 mM Tris-HCl pH 7.6, 150 mM NaCl, 1% NP-40, 1% sodium deoxycholate, 0.1% SDS, 1× Protease Inhibitor Cocktail), 5× sample buffer was added, and then heated at 100° C. for 15 minutes. The prepared sample was electrophoresed with sodium dodecyl sulfate poly acrylamide gel electrophoresis (SDS-PAGE), and then the proteins in the gel were transferred to a PVDF membrane using Trans-Blot Turbo. The membrane was treated with a 5% bovine serum albumin (BSA) solution and blocked at room temperature for 2 hours, and then Aurora A and R-actin antibodies were diluted in the 5% BSA solution to react with the membrane at 4° C. overnight. After washed with PBST (0.5% Tween20) 5 times, horse radish peroxidase (HRP)-conjugated secondary antibodies were diluted in PBST to react at room temperature for 2 hours, and then washed again with a PBST solution 5 times. After enzyme-substrate reaction was carried out using a HRP substrate, a signal was measured with chemi-doc equipment, and the densitometry of a band corresponding to the Aurora A protein detected in the Preparation Example Compounds was quantitatively analyzed. The case when the degrading capacity of each Aurora A degrader was reduced by less than 40% is indicated as +, the case when the degrading capacity was reduced by 40% to 70% (exclusive of 70) is indicated as ++, the case when the degrading capacity was reduced by 70% or more is indicated as +++ in Tables 20 to 23 below.

| Structure (SMILES) | Aurora A degradation (%) at 5 µM [%] |
| --- | --- |
| COc1cc(Nc2ncc3c(n2)-c2ccc(Cl)cc2C(c2c(F)cccc2OC)=NC3)ccc1C(=O)Nc1ccc(C#CCN)cc1 [1-1″, N-(4-(3-aminoprop-1-yn-1-yl)phenyl)-4-((9-chloro-7-(2-fluoro-6-methoxyphenyl)-5H-benzo[c]pyrimido[4,5-e]azepin-2-yl)amino)-2-methoxybenzamide trifluoroacetic acid] | > 70 |
| COc1cc(Nc2ncc3c(n2)-c2ccc(Cl)cc2C(c2c(F)cccc2OC)=NC3)ccc1C(=O)Nc1cccc(C#CCN)c1 [1-3″, N-(3-(3-aminoprop-1-yn-1-yl)phenyl)-4-((9-chloro-7-(2-fluoro-6-methoxyphenyl)-5H-benzo[c]pyrimido[4,5-e]azepin-2-yl)amino)-2-methoxybenzamide trifluoroacetic acid] | > 70 |
| COC(=O)c1ccc(NC(=O)c2ccc(Nc3ncc4c(n3)-c3ccc(Cl)cc3C(c3c(F)cccc3OC)=NC4)cc2OC)cc1C#CCN [3-25″, methyl 2-(3-aminoprop-1-yn-1-yl)-4-(4-((9-chloro-7-(2-fluoro-6-methoxyphenyl)-5H-benzo[c]pyrimido[4,5-e]azepin-2-yl)amino)-2-methoxybenzamido)benzoate trifluoroacetic acid] | < 40 |
| COc1cc(Nc2ncc3c(n2)-c2ccc(Cl)cc2C(c2c(F)cccc2OC)=NC3)ccc1C(=O)Nc1ccc(C#CC(N)CO)cc1 (stereo not shown) [3-49″, N-(4-(3-amino-4-hydroxybut-1-yn-1-yl)phenyl)-4-((9-chloro-7-(2-fluoro-6-methoxyphenyl)-5H-benzo[c]pyrimido[4,5-e]azepin-2-yl)amino)-2-methoxybenzamide trifluoroacetic acid] | > 70 |
| COc1cc(Nc2ncc3c(n2)-c2ccc(Cl)cc2C(c2c(F)cccc2OC)=NC3)ccc1C(=O)NCC#Cc1ccc(C#CCN)o1 [4-1″, N-(3-(5-(3-aminoprop-1-yn-1-yl)furan-2-yl)prop-2-yn-1-yl)-4-((9-chloro-7-(2-fluoro-6-methoxyphenyl)-5H-benzo[c]pyrimido[4,5-e]azepin-2-yl)amino)-2-methoxybenzamide trifluoroacetic acid] | > 70 |
| COc1cc(Nc2ncc3c(n2)-c2ccc(Cl)cc2C(c2c(F)cccc2OC)=NC3)ccc1C(=O)NCCCCCC(=O)Nc1ccc(C#CCN)cc1 [4-165″, N-(6-((4-(3-aminoprop-1-yn-1-yl)phenyl)amino)-6-oxohexyl)-4-((9-chloro-7-(2-fluoro-6-methoxyphenyl)-5H-benzo[c]pyrimido[4,5-e]azepin-2-yl)amino)-2-methoxybenzamide trifluoroacetic acid] | > 70 |
| COc1cc(Nc2ncc3c(n2)-c2ccc(Cl)cc2C(c2c(F)cccc2OC)=NC3)ccc1C(=O)NCCCNC(=O)c1ccc(C#CCN)o1 [4-166″, 5-(3-aminoprop-1-yn-1-yl)-N-(3-(4-((9-chloro-7-(2-fluoro-6-methoxyphenyl)-5H-benzo[c]pyrimido[4,5-e]azepin-2-yl)amino)-2-methoxybenzamido)propyl)furan-2-carboxamide trifluoroacetic acid] | < 40 |
| COC(=O)c1ccc(NC(=O)CCCNC(=O)c2ccc(Nc3ncc4c(n3)-c3ccc(Cl)cc3C(c3c(F)cccc3OC)=NC4)cc2OC)cc1C#CCN [4-228″, methyl 2-(3-aminoprop-1-yn-1-yl)-4-(4-(4-((9-chloro-7-(2-fluoro-6-methoxyphenyl)-5H-benzo[c]pyrimido[4,5-e]azepin-2-yl)amino)-2-methoxybenzamido)butanamido)benzoate trifluoroacetic acid] | 40 to 70 |
| COc1cc(Nc2ncc3c(n2)-c2ccc(Cl)cc2C(c2c(F)cccc2OC)=NC3)ccc1C(=O)NCCCC(=O)Nc1ccc(C#CCN)c(CO)c1 [5-8″, N-(4-((4-(3-aminoprop-1-yn-1-yl)-3-(hydroxymethyl)phenyl)amino)-4-oxobutyl)-4-((9-chloro-7-(2-fluoro-6-methoxyphenyl)-5H-benzo[c]pyrimido[4,5-e]azepin-2-yl)amino)-2-methoxybenzamide trifluoroacetic acid] | < 40 |
| COC(=O)c1ccc(C#CCNC(=O)C2CCN(C(=O)c3ccc(Nc4ncc5c(n4)-c4ccc(Cl)cc4C(c4c(F)cccc4OC)=NC5)cc3OC)CC2)cc1C#CCN [5-28″, methyl 2-(3-aminoprop-1-yn-1-yl)-4-(3-(1-(4-((9-chloro-7-(2-fluoro-6-methoxyphenyl)-5H-benzo[c]pyrimido[4,5-e]azepin-2-yl)amino)-2-methoxybenzoyl)piperidine-4-carboxamido)prop-1-yn-1-yl)benzoate trifluoroacetic acid] | > 70 |
| COC(=O)c1ccc(N2CCN(CC3CCN(C(=O)c4ccc(Nc5ncc6c(n5)-c5ccc(Cl)cc5C(c5c(F)cccc5OC)=NC6)cc4OC)CC3)CC2)cc1C#CCN [5-29″, methyl 2-(3-aminoprop-1-yn-1-yl)-4-(4-((1-(4-((9-chloro-7-(2-fluoro-6-methoxyphenyl)-5H-benzo[c]pyrimido[4,5-e]azepin-2-yl)amino)-2-methoxybenzoyl)piperidin-4-yl)methyl)piperazin-1-yl)benzoate trifluoroacetic acid] | > 70 |
| COC(=O)c1ccc(N2CCN(C(=O)CCNC(=O)c3ccc(Nc4ncc5c(n4)-c4ccc(Cl)cc4C(c4c(F)cccc4OC)=NC5)cc3OC)CC2)cc1C#CCN [5-32″, methyl 2-(3-aminoprop-1-yn-1-yl)-4-(4-(3-(4-((9-chloro-7-(2-fluoro-6-methoxyphenyl)-5H-benzo[c]pyrimido[4,5-e]azepin-2-yl)amino)-2-methoxybenzamido)propanoyl)piperazin-1-yl)benzoate trifluoroacetic acid] | 40 to 70 |

Same assay, conditions: MM1.S; MM.1S cells, 5 μM, 24 hours, Western blot; read-out: Aurora A degrading capacity (%)

| Structure (SMILES) | Aurora A degradation (%) at 5 µM [%] |
| --- | --- |
| COC(=O)c1ccc(C(=O)NCCCNC(=O)c2ccc(Nc3ncc4c(n3)-c3ccc(Cl)cc3C(c3c(F)cccc3OC)=NC4)cc2OC)cc1C#CCN [5-18″, methyl 2-(3-aminoprop-1-yn-1-yl)-4-((3-(4-((9-chloro-7-(2-fluoro-6-methoxyphenyl)-5H-benzo[c]pyrimido[4,5-e]azepin-2-yl)amino)-2-methoxybenzamido)propyl)carbamoyl)benzoate hydrochloride] | > 70 |
| COC(=O)c1ccc(NC(=O)C2CCN(C(=O)c3ccc(Nc4ncc5c(n4)-c4ccc(Cl)cc4C(c4c(F)cccc4OC)=NC5)cc3OC)CC2)cc1C#CCN [5-23″, methyl 2-(3-aminoprop-1-yn-1-yl)-4-(1-(4-((9-chloro-7-(2-fluoro-6-methoxyphenyl)-5H-benzo[c]pyrimido[4,5-e]azepin-2-yl)amino)-2-methoxybenzoyl)piperidine-4-carboxamido)benzoate hydrochloride] | < 40 |

— patent publication US20240425517A1, “NOVEL COMPOUND FOR DEGRADATION OF TARGET PROTEIN OR POLYPEPTIDE BY POLYUBIQUITINATION” (PRAZER THERAPEUTICS INC., priority 2021, published 2024)
